US20220257774A1, “AROMATIC AMINE AR AHD BET TARGETING PROTEIN DEGRADATION CHIMERA COMPOUND AND USE” (HINOVA PHARMACEUTICALS INC., priority 2019, published 2022)
Like-named read-outs stand apart in the source and are kept apart here.

Test system: LNCaP/AR cells
Test: Inhibition of the proliferation of LNCap/AR cells (CCK-8)
Format: cell-based
Settings: 144 h, read-out: LNCap/AR IC50
Summary of the method: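 LNCaP/AR cells (1000/well, RPMI1640 + 10% FBS) were treated for 6 days at 37 °C with 9-point 3-fold dilutions from 10 μM final, 0.1% DMSO, in duplicate. Viability was read by CCK-8 absorbance at 450 nm after 1 h, and IC50 came from a dose-response-inhibition fit.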

[1] = LNCaP/AR cells, 6 days culture, CCK-8

Compound: CC(=O)O[C@@H]1C[C@@H](C(=O)N[C@@H](C)c2ccc(-c3scnc3C)cc2)N(C(=O)[C@@H](NC(=O)COCCCCCN(c2ccc(-n3ccnc3)cc2)c2cc3onc(C)c3cc2C)C(C)(C)C)C1 [Compound 18, (3R,5S)-1-((S)-2-(2-((5-((4-(1H-imidazol-1-yl)phenyl)(3,5-dimethylbenzo[d]isoxazol-6-yl)amino)pentyl)oxy)acetamido)-3,3-dimethylbutyryl)-5-((S)-1-(4-(4-methylthiazol-5-yl)phenyl)ethyl)carbamoyl)pyrrolidine-3-yl acetate]
- IC50 [1]: > 2 µM

Compound: CC(=O)O[C@@H]1C[C@@H](C(=O)N[C@@H](C)c2ccc(-c3scnc3C)cc2)N(C(=O)[C@@H](NC(=O)CCN2CCC(CN(c3ccc(-n4ccnc4)c(Br)c3)c3cc(-c4c(C)noc4C)ccc3C)CC2)C(C)(C)C)C1 [Compound 99, (3R,5S)-1-((S)-2-(3-(4-(((3-Bromo-4-(1H-imidazol-1-yl)phenyl)(5-(3,5-dimethylisoxazol-4-yl)-2-methylphenyl)amino)methyl)piperidin-1-yl)propionamide)-3,3-dimethylbutyryl)-5-(((S)-1-(4-(4-methylthiazol-5-yl)phenyl)ethyl)carbamoyl)pyrrolidine-3-yl acetate]
- IC50 [1]: 0.501 to 2 µM

Compound: Cc1ccc(-c2c(C)noc2C)cc1N(CCCCOCC(=O)N[C@H](C(=O)N1C[C@H](O)C[C@H]1C(=O)N[C@@H](C)c1ccc(-c2scnc2C)cc1)C(C)(C)C)c1ccc(-n2ccnc2)cc1 [Compound 85, (2S,4R)-1-((S)-2-(2-(4-((4-(1H-imidazol-1-yl)phenyl)(5-(3,5-dimethylisoxazol-4-yl)-2-methylphenyl)amino)butoxy)acetamido)-3,3-dimethylbutyryl)-4-hydroxy-N—((S)-1-(4-(4-methylthiazol-5-yl)phenyl)ethyl)pyrrolidine-2-carboxamide]
- IC50 [1]: 0.101 to 0.5 µM

Compound: CC(=O)O[C@@H]1C[C@@H](C(=O)N[C@@H](C)c2ccc(-c3scnc3C)cc2)N(C(=O)[C@@H](NC(=O)COCCCCCN(c2ccc(-n3ccnc3)cc2)c2cc3c(C)noc3cc2C)C(C)(C)C)C1 [Compound 17, (3R,5S)-1-((S)-2-(2-((5-((4-(1H-imidazol-1-yl)phenyl)(3,6-dimethylbenzo[d]isoxazol-5-yl)amino)pentyl)oxy)acetamido)-3,3-dimethylbutyryl)-5-((S)-1-(4-(4-methylthiazol-5-yl)phenyl)ethyl)carbamoyl)pyrrolidine-3-yl acetate]
- IC50 [1]: > 2 µM

Compound: Cc1ccc(-c2c(C)noc2C)cc1N(CCCCCNc1ccc2c(c1)CN(C1CCC(=O)NC1=O)C2=O)c1ccc(-c2c(C)noc2C)cc1 (stereo not shown) [Compound 33, 3-(5-((5-((5-(3,5-Dimethylisoxazol-4-yl)-2-methylphenyl) (4-(3,5-dimethylisoxazol-4-yl)phenyl)amino)pentyl)amino)-1-oxoisoindolin-2-yl)piperidine-2,6-dione]
- IC50 [1]: 0.101 to 0.5 µM

Compound: CC(=O)O[C@@H]1C[C@@H](C(=O)N[C@@H](C)c2ccc(-c3scnc3C)cc2)N(C(=O)[C@@H](NC(=O)CN2CCN(CCN(c3ccc(-n4ccnc4)c(Br)c3)c3cc(-c4c(C)noc4C)ccc3C)CC2)C(C)(C)C)C1 [Compound 47, (3R,5S)-1-((S)-2-(2-(4-(2-((3-bromo-4-(1H-imidazol-1-yl)phenyl)(5-(3,5-dimethylisoxazol-4-yl)-2-methylphenyl)amino)ethyl)piperazin-1-yl)acetamido)-3,3-dimethylbutanol)-5-((S)-1-(4-methylthiazol-5-yl)phenyl)ethyl)carbamoyl)pyrrolidine-3-yl acetate]
- IC50 [1]: 0.501 to 2 µM

Compound: CC(=O)O[C@@H]1C[C@@H](C(=O)N[C@@H](C)c2ccc(-c3scnc3C)cc2)N(C(=O)[C@@H](NC(=O)COCCCCCN(c2ccc(F)c(-n3ccnc3)c2)c2cc(-c3c(C)noc3C)ccc2C)C(C)(C)C)C1 [Compound 15]
- IC50 (LNCaP/AR): > 2 µM

Compound: Cc1ccc(-c2c(C)noc2C)cc1N(CCOCCOCC(=O)N[C@H](C(=O)N1C[C@H](O)C[C@H]1C(=O)N[C@@H](C)c1ccc(-c2scnc2C)cc1)C(C)(C)C)c1ccc(-n2ccnc2)c(Br)c1 [Compound 55]
- IC50 [1]: > 2 µM

Compound: CC(=O)O[C@@H]1C[C@@H](C(=O)N[C@@H](C)c2ccc(-c3scnc3C)cc2)N(C(=O)[C@@H](NC(=O)COCCN2CC(CN(c3ccc(-n4ccnc4)c(Br)c3)c3cc(-c4c(C)noc4C)ccc3C)C2)C(C)(C)C)C1 [Compound 51, (3R,5S)-1-((S)-2-(2-(3-((3-bromo-4-(1H-imidazol-1-yl)phenyl) (5-(3,5-dimethylisoxazol-4-yl)-2-methylphenyl)amino)methyl)azetidine-1-yl)ethoxy)acetamido)-3,3-dimethylbutanol)-5-((S)-(4-methylthiazol-5-yl)phenyl)ethyl)carbamoyl)pyrrolidine-3-yl acetate]
- IC50 [1]: > 2 µM

Compound: CC(=O)O[C@@H]1C[C@@H](C(=O)N[C@@H](C)c2ccc(-c3scnc3C)cc2)N(C(=O)[C@@H](NC(=O)COCCCCCN(c2ccc(-n3ccnc3)c(Cl)c2)c2cc(-c3c(C)noc3C)ccc2C)C(C)(C)C)C1 [Compound 11, (3R,5S)-1-((S)-2-(2-((5-((3-chloro-4-(1H-imidazol-1-yl)phenyl)(5-(3,5-dimethylisoxazol-4-yl)-2-methylphenyl)amino)n-pentyl)oxy)acetylamino)-3,3-dimethylbutyryl)-5-(((S)-1-(4-(4-methylthiazol-5-yl)phenyl)ethyl)formylamino)pyrrolidinyl-3-acetate]
- IC50 [1]: 0.501 to 2 µM

Compound: CC(=O)O[C@@H]1C[C@@H](C(=O)N[C@@H](C)c2ccc(-c3scnc3C)cc2)N(C(=O)[C@@H](NC(=O)COCCCCCN(c2ccc(-n3ccnc3)cc2)c2cc(-c3c(C)noc3C)ccc2C)C(C)(C)C)C1 [Compound 84, (3R,5S)-1-((S)-2-(2-((S-((4-(1H-imidazol-1-yl)phenyl)(5-(3,5-dimethylisoxazol-4-yl)-2-methylphenyl)amino)pentyl)oxy)acetylamino)-3,3-dimethylbutyryl)-5-(((S)-1-(4-(4-methylthiazol-5-yl)phenyl)ethyl)aminoformyl)pyrrolidinyl-3-yl acetate]
- IC50 [1]: 0.501 to 2 µM

Compound: CC(=O)O[C@@H]1C[C@@H](C(=O)N[C@@H](C)c2ccc(-c3scnc3C)cc2)N(C(=O)[C@@H](NC(=O)COCCCCCN(c2ccc(-n3ccnc3)c(C(F)(F)F)c2)c2cc(-c3c(C)noc3C)ccc2C)C(C)(C)C)C1 [Compound 22, (3R,5S)-1-((S)-2-(2-((5-((4-(1H-imidazol-1-yl)-3-(trifluoromethyl)phenyl)(5-(3,5-dimethylisoxazol-4-yl)2-methylphenyl)amino)pentyl)oxy)acetamido)-3,3-dimethylbutyryl)-5-((S)-1-(4-methylthiazol-5-yl)phenyl)ethyl)carbamoyl)pyrrolidine-3-yl acetate]
- IC50 [1]: 0.501 to 2 µM

Compound: CC(=O)O[C@@H]1C[C@@H](C(=O)N[C@@H](C)c2ccc(-c3scnc3C)cc2)N(C(=O)[C@@H](NC(=O)COCCCCCCN(c2ccc(-n3ccnc3)cc2)c2cc(-c3c(C)noc3C)ccc2C)C(C)(C)C)C1 [Compound 5, (3R,5S)-1-((S)-2-(2-((6-((4-(1H-imidazol-1-yl)phenyl)(5-(3,5-Dimethylisoxazol-4-yl)-2-methylphenyl)amino)n-hexyl)oxy)acetylamino)-3,3-dimethylbutyryl)-5-(((S)-1-(4-(4-methylthiazol-5-yl)phenyl)ethyl)formylamino)pyrrolidinyl-3-acetate]
- IC50 [1]: > 2 µM
